Test results: patent US20080176936A1, “Classes of Compounds that Interact with Integrins” (priority 2005, published 2008)

Tests used:
[1] = target: T1, αllbβ3 integrin (Homo sapiens, UniProt P05106+P08514); assay: ELISA: inhibition of binding of αllbβ3 integrin membrane preparation to coated extracellular matrix protein; conditions: human platelet membrane preparation
T1 construct: Human platelet membrane preparations were used as a source of αllbβ3 integrin; from tissue; host or cells: human platelets (membrane preparation)
T1 sequence (P08514 32-887 limits assumed): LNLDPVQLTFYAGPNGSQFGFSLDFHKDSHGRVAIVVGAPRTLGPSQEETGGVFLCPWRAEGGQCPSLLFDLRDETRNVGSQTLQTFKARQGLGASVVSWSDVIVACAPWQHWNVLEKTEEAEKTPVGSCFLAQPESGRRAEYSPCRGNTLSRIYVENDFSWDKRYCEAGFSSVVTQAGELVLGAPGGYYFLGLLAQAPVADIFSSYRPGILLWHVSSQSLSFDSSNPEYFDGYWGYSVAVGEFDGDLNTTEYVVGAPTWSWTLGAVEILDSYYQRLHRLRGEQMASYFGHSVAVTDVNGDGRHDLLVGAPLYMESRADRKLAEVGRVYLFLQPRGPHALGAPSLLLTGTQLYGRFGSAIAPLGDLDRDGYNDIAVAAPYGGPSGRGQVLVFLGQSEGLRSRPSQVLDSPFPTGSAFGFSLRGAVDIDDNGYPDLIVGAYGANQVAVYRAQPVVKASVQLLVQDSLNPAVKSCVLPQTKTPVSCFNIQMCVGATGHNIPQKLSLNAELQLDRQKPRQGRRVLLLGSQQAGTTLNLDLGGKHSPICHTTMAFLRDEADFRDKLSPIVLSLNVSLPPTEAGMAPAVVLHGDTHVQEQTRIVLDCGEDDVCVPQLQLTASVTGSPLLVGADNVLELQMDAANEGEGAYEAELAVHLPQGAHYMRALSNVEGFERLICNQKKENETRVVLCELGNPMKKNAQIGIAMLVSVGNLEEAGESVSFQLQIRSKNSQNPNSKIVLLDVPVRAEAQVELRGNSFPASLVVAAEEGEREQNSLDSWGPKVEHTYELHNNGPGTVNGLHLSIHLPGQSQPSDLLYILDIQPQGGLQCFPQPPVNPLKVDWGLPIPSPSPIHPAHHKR
T1 sequence (P08514 891-1039 partner limits assumed): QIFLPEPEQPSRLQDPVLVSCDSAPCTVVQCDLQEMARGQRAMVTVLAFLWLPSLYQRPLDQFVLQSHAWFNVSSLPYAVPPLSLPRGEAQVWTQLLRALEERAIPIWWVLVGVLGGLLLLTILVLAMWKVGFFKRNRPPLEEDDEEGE
T1 sequence (P05106 27-788): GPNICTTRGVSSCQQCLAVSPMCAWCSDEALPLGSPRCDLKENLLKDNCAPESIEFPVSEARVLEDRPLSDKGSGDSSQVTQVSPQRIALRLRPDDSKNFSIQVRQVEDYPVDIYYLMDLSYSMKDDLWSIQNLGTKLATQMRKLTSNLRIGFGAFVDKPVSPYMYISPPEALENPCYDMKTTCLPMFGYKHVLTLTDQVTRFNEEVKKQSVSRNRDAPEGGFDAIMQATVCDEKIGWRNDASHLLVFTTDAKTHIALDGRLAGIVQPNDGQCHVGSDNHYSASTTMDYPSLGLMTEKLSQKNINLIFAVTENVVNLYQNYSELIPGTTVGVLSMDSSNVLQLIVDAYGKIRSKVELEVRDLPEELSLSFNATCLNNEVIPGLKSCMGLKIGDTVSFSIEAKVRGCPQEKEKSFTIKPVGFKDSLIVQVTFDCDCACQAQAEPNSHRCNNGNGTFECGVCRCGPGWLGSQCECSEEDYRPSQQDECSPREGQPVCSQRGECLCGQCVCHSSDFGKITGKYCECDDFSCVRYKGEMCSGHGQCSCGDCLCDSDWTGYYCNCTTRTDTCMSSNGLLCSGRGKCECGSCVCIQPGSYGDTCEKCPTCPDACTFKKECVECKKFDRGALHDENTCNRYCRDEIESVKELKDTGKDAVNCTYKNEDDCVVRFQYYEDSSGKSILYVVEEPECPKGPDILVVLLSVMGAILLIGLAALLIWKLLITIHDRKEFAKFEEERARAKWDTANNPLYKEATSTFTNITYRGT
Outline: (§1)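 Wells were coated with fibrinogen or vitronectin (10 µg/well), and integrin binding was measured by ELISA. αIIbβ3 came from human platelet membranes and αVβ3 from WM-115 cells, each preincubated with compound. Bound integrin was detected with a rabbit anti-β3 antibody, an HRP secondary and a colorimetric readout.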

[2] = target: T2, αVβ3 integrin (Homo sapiens, UniProt P05106+P06756); assay: ELISA: inhibition of binding of αVβ3 integrin (source WM-115 cell line) to coated extracellular matrix protein; conditions: WM-115 cell line as integrin source
T2 construct: the cell line WM-115 was used as a source of αVβ3 integrin; endogenous in cells; host or cells: WM-115 cell line
T2 sequence (P06756 31-889 limits assumed): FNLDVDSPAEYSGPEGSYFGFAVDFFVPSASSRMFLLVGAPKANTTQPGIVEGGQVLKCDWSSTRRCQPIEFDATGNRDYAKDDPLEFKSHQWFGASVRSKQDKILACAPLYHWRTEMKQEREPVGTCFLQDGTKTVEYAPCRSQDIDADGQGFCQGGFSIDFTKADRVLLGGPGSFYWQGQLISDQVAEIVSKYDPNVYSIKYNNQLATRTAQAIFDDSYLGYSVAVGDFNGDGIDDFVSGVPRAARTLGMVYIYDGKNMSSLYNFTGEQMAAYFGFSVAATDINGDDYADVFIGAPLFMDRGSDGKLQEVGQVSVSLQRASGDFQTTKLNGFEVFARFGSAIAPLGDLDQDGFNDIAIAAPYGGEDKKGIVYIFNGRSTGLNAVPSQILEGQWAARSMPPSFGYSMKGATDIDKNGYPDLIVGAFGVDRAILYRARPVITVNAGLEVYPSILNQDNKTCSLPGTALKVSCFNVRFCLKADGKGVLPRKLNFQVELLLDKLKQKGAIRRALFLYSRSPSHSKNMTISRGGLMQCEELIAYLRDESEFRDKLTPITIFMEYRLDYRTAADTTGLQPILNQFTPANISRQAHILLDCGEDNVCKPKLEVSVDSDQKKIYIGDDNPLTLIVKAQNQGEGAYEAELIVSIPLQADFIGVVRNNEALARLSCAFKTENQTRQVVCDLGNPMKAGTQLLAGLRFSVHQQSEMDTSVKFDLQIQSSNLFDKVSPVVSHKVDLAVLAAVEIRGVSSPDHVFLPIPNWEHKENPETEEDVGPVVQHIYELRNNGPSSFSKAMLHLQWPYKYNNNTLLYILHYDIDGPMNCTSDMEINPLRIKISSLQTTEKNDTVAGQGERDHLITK
T2 sequence (P06756 891-1048 partner limits assumed): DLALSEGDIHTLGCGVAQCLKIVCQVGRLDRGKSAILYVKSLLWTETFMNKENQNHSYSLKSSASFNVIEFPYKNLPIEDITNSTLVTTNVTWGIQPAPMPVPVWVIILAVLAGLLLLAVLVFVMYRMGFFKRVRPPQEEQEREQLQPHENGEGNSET
T2 sequence (P05106 27-788): as the sequence (P05106 27-788) above
Outline: as §1

| Structure (SMILES) | INHIBITION @ 250 uM RECEPTOR allBb3 SUBSTRATE FIBRINOGEN [1] | INHIBITION 250 uM RECEPTOR allBb3 SUBSTRATE VITRONECTIN [1] | INHIBITION 250 uM RECEPTOR aVb3 SUBSTRATE FIBRINOGEN [2] |
| --- | --- | --- | --- |
| COCC1OC(OCCNC(=N)N)C(NC(=O)c2ccccc2)C(OCc2ccc(C(=O)O)cc2)C1O (single isomer, unassigned) [Compound 114] | − (0% to 35% inhibition at 250 micromolar) | ++ (61% to 80% inhibition at 250 micromolar) | − (0% to 35% inhibition at 250 micromolar) |
| CCOC1C(O)C(COCC(=O)O)OC(OCc2ccccc2)C1NC(=O)c1cccc(N)c1 (single isomer, unassigned) [Compound 85] | − (0% to 35% inhibition at 250 micromolar) | +++ (81% to 100% inhibition at 250 micromolar) | − (0% to 35% inhibition at 250 micromolar) |
| Nc1cccc(COC[C@H]2OC(O)[C@H](NC(=O)CCC(=O)O)[C@@H](OCc3ccc(Br)cc3)[C@@H]2O)c1 (single isomer, unassigned) [Compound 46] | + (36% to 60% inhibition at 250 micromolar) | +++ (81% to 100% inhibition at 250 micromolar) | +++ (81% to 100% inhibition at 250 micromolar) |
| CCOC1O[C@H](COCC(=O)O)[C@@H](O)[C@H](OCc2ccc(Br)cc2)[C@H]1NC(=O)c1cccc(N)c1 (single isomer, unassigned) [Compound 39] | + (36% to 60% inhibition at 250 micromolar) | +++ (81% to 100% inhibition at 250 micromolar) | +++ (81% to 100% inhibition at 250 micromolar) |
| COC1OC(COCc2ccc(Br)cc2)C(O)C(OCC(=O)O)C1NC(=O)c1cccc(N)c1 (single isomer, unassigned) [Compound 8] | + (36% to 60% inhibition at 250 micromolar) | +++ (81% to 100% inhibition at 250 micromolar) | +++ (81% to 100% inhibition at 250 micromolar) |
| COC1OC(COCc2cccc(N)c2)C(O)C(OCc2ccc(Br)cc2)C1NC(=O)c1ccc(C(=O)O)cc1 (single isomer, unassigned) [Compound 4] | − (0% to 35% inhibition at 250 micromolar) | − (0% to 35% inhibition at 250 micromolar) | + (36% to 60% inhibition at 250 micromolar) |
| CCOC1C(O)C(COCC(=O)O)OC(OCc2ccccc2)C1NC(=O)c1cccc(N)c1 (single isomer, unassigned) [Compound 84] | − (0% to 35% inhibition at 250 micromolar) | − (0% to 35% inhibition at 250 micromolar) | − (0% to 35% inhibition at 250 micromolar) |
| COC1OC(COCc2cccc(N)c2)C(O)C(OCc2ccc(C(=O)O)cc2)C1NC(=O)c1ccccc1 (single isomer, unassigned) [Compound 18] | ++ (61% to 80% inhibition at 250 micromolar) | +++ (81% to 100% inhibition at 250 micromolar) | +++ (81% to 100% inhibition at 250 micromolar) |
| Nc1cccc(COC2C(O)C(COCC(=O)O)OC(O)C2NC(=O)c2ccccc2)c1 (single isomer, unassigned) [Compound 29] | ++ (61% to 80% inhibition at 250 micromolar) | +++ (81% to 100% inhibition at 250 micromolar) | +++ (81% to 100% inhibition at 250 micromolar) |
| CCOC1OC(COCc2cccc(N)c2)C(O)C(OCc2ccc(C(=O)O)cc2)C1NC(=O)c1ccc(Cl)cc1 (single isomer, unassigned) [Compound 64] | − (0% to 35% inhibition at 250 micromolar) | ++ (61% to 80% inhibition at 250 micromolar) | + (36% to 60% inhibition at 250 micromolar) |
| COC1OC(COCC(=O)O)C(O)C(OCc2ccccc2)C1NC(=O)CCCN (single isomer, unassigned) [Compound 124] | ++ (61% to 80% inhibition at 250 micromolar) | +++ (81% to 100% inhibition at 250 micromolar) | + (36% to 60% inhibition at 250 micromolar) |
| CC(=O)NC1C(OCCNC(=N)N)OC(COCC(=O)O)C(O)C1OCc1ccccc1 (single isomer, unassigned) [Compound 113] | + (36% to 60% inhibition at 250 micromolar) | +++ (81% to 100% inhibition at 250 micromolar) | +++ (81% to 100% inhibition at 250 micromolar) |
| CCC(=O)NC1C(OCc2ccccc2)OC(COCc2ccc(C(=O)O)cc2)C(O)C1OCc1cccc(N)c1 (single isomer, unassigned) [Compound 111] | − (0% to 35% inhibition at 250 micromolar) | +++ (81% to 100% inhibition at 250 micromolar) | − (0% to 35% inhibition at 250 micromolar) |
| CCOC1O[C@H](COCC(=O)O)[C@@H](O)[C@H](OCc2ccccc2)[C@H]1NC(=O)c1cccc(N)c1 (single isomer, unassigned) [Compound 32] | + (36% to 60% inhibition at 250 micromolar) | +++ (81% to 100% inhibition at 250 micromolar) | − (0% to 35% inhibition at 250 micromolar) |
| CCC(=O)NC1C(OCc2ccccc2)OC(COCC(=O)O)C(O)C1OCc1cccc(N)c1 (single isomer, unassigned) [Compound 110] | − (0% to 35% inhibition at 250 micromolar) | +++ (81% to 100% inhibition at 250 micromolar) | − (0% to 35% inhibition at 250 micromolar) |
| COC(=O)c1ccc(COC2C(O)C(COCc3ccccc3)OC(OC)C2NC(=O)CCNC(=N)N)cc1 (single isomer, unassigned) [Compound 14] | + (36% to 60% inhibition at 250 micromolar) | +++ (81% to 100% inhibition at 250 micromolar) | ++ (61% to 80% inhibition at 250 micromolar) |
| CCOC1OC(COCC(=O)O)C(O)C(OCc2cccc(N)c2)C1NC(=O)c1ccc(Cl)cc1 (single isomer, unassigned) [Compound 76] | − (0% to 35% inhibition at 250 micromolar) | − (0% to 35% inhibition at 250 micromolar) | − (0% to 35% inhibition at 250 micromolar) |
| Nc1cccc(COC2C(O)C(COCc3ccccc3)OC(O)C2NC(=O)c2ccc(C(=O)O)cc2)c1 (single isomer, unassigned) [Compound 71] | − (0% to 35% inhibition at 250 micromolar) | +++ (81% to 100% inhibition at 250 micromolar) | +++ (81% to 100% inhibition at 250 micromolar) |
| COC1OC(COCc2ccccc2)C(O)C(OCc2ccc(C(=O)O)cc2)C1NC(=O)CCNC(=N)N (single isomer, unassigned) [Compound 12] | ++ (61% to 80% inhibition at 250 micromolar) | ++ (61% to 80% inhibition at 250 micromolar) | − (0% to 35% inhibition at 250 micromolar) |
| CCOCC1OC(OCc2ccccc2)C(NC(=O)c2ccc(C(=O)O)cc2)C(OCc2cccc(N)c2)C1O (single isomer, unassigned) [Compound 107] | − (0% to 35% inhibition at 250 micromolar) | +++ (81% to 100% inhibition at 250 micromolar) | − (0% to 35% inhibition at 250 micromolar) |
| N=C(N)NCCC(=O)NC1C(OCc2ccccc2)OC(CO)C(O)C1OCC(=O)O (single isomer, unassigned) [Compound 94] | − (0% to 35% inhibition at 250 micromolar) | + (36% to 60% inhibition at 250 micromolar) | − (0% to 35% inhibition at 250 micromolar) |
| Nc1cccc(COC2C(O)C(COCc3ccccc3)OC(O)C2NC(=O)CCC(=O)O)c1 (single isomer, unassigned) [Compound 23] | ++ (61% to 80% inhibition at 250 micromolar) | +++ (81% to 100% inhibition at 250 micromolar) | − (0% to 35% inhibition at 250 micromolar) |
| COCC1OC(OCc2ccccc2)C(NC(=O)c2ccc(C(=O)O)cc2)C(OCc2cccc(N)c2)C1O (single isomer, unassigned) [Compound 105] | +++ (81% to 100% inhibition at 250 micromolar) | ++ (61% to 80% inhibition at 250 micromolar) | − (0% to 35% inhibition at 250 micromolar) |
| CCOC1O[C@H](COCc2cccc(N)c2)[C@@H](O)[C@H](OCc2ccc(C(=O)O)cc2)[C@H]1NC(=O)c1ccc(Cl)cc1 (stereo partly drawn) [Compound 65] | − (0% to 35% inhibition at 250 micromolar) | +++ (81% to 100% inhibition at 250 micromolar) | − (0% to 35% inhibition at 250 micromolar) |
